What is called EC50 is the concentration that produces a half-maximal response.

The source of these data is US8574563B2 (Bristol-Myers Squibb Company, priority 2006, dated 2013).

SMILES strings stand for the structures. Like-named read-outs stand apart in the source and are kept apart here.

The assay relates to HCV 1b-377-neo replicon cells. The experiment in a line: HCV replicon assay, HCV 1b-377-neo replicon cells (1b FRET). The class given is cell-based, Hepatitis C virus genotype 1b. The conditions noted are these: HCV 1b-377-neo replicon cells, HCV 1b genotype, read-out: EC50 range against HCV 1b (Table 2, Range). In short, it runs like this:
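Compounds were tested in genotype 1b subgenomic replicon cells carrying a neomycin marker, alongside a matched replicon line with an NS5A Y2065H substitution that confers resistance to a reference NS5A inhibitor.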
Background: A replicon is a self-replicating genome or part of one, used to study replication in cells.

With `COC(=O)N[C@@H](C(=O)N1CCC[C@H]1c1ncc(-c2ccc(-c3ccc(-c4cnc([C@@H]5CCCN5C(=O)Cc5cn(C)cn5)[nH]4)cc3)cc2)[nH]1)c1ccccc1` [Example 62, methyl ((1R)-2-((2S)-2-(5-(4′-(2-((2S)-1-((1-methyl-1H-imidazol-4-yl)acetyl)-2-pyrrolidinyl)-1H-imidazol-5-yl)-4-biphenylyl)-1H-imidazol-2-yl)-1-pyrrolidinyl)-2-oxo-1-phenylethyl)carbamate], the EC50 (Hepatitis C virus) lay within 0.001 to 0.999 nM.
Still for that read-out and setting: next, `COC(=O)N[C@@H](C(=O)N1CCC[C@H]1c1ncc(-c2ccc(-c3ccc(-c4cnc([C@@H]5CCCN5C(=O)c5ncc[nH]5)[nH]4)cc3)cc2)[nH]1)c1ccccc1` [Example 63, methyl ((1R)-2-((2S)-2-(5-(4′-(2-((2S)-1-(1H-imidazol-2-ylcarbonyl)-2-pyrrolidinyl)-1H-imidazol-5-yl)-4-biphenylyl)-1H-imidazol-2-yl)-1-pyrrolidinyl)-2-oxo-1-phenylethyl)carbamate]: 0.001 to 0.999 nM; `COC(=O)N[C@@H](C(=O)N1CCC[C@H]1c1ncc(-c2ccc(-c3ccc(-c4cnc([C@@H]5CCCN5C(=O)C(c5ccccc5)N5CCC(O)CC5)[nH]4)cc3)cc2)[nH]1)c1ccccc1` (stereo partly drawn) [Example 64, methyl ((1R)-2-((2S)-2-(5-(4′-(2-((2S)-1-((4-hydroxy-1-piperidinyl)(phenyl)acetyl)-2-pyrrolidinyl)-1H-imidazol-5-yl)-4-biphenylyl)-1H-imidazol-2-yl)-1-pyrrolidinyl)-2-oxo-1-phenylethyl)carbamate]: 0.001 to 0.999 nM.
`COC(=O)N[C@@H](C(=O)N1CCC[C@H]1c1ncc(-c2ccc(-c3ccc(-c4cnc([C@@H]5CCCN5C(=O)Cc5nnn[nH]5)[nH]4)cc3)cc2)[nH]1)c1ccccc1` [Example 65, methyl ((1R)-2-oxo-1-phenyl-2-((2S)-2-(5-(4′-(2-((2S)-1-(1H-tetrazol-5-ylacetyl)-2-pyrrolidinyl)-1H-imidazol-5-yl)-4-biphenylyl)-1H-imidazol-2-yl)-1-pyrrolidinyl)ethyl)carbamate]: the EC50 (Hepatitis C virus) was in the range of 1 to 99 nM.
For the compound `COC(=O)N[C@@H](C(=O)N1CCC[C@H]1c1ncc(-c2ccc(-c3ccc(-c4cnc([C@@H]5CCCN5C(=O)c5ccccn5)[nH]4)cc3)cc2)[nH]1)c1ccccc1` [Example 67, methyl ((1R)-2-oxo-1-phenyl-2-((2S)-2-(5-(4′-(2-((2S)-1-(2-pyridinylcarbonyl)-2-pyrrolidinyl)-1H-imidazol-5-yl)-4-biphenylyl)-1H-imidazol-2-yl)-1-pyrrolidinyl)ethyl)carabamate], the EC50 was 0.001 to 0.999 nM.
With `COC(=O)N[C@@H](C(=O)N1CCC[C@H]1c1ncc(-c2ccc(-c3ccc(-c4cnc([C@@H]5CCCN5C(=O)c5cccnc5)[nH]4)cc3)cc2)[nH]1)c1ccccc1` [Example 68, methyl ((1R)-2-oxo-1-phenyl-2-((2S)-2-(5-(4′-(2-((2S)-1-(3-pyridinylcarbonyl)-2-pyrrolidinyl)-1H-imidazol-5-yl)-4-biphenylyl)-1H-imidazol-2-yl)-1-pyrrolidinyl)ethyl)carbamate], the half-maximal effective concentration (EC50) (Hepatitis C virus) was in the range of 0.001 to 0.999 nM.
For `COC(=O)N[C@@H](C(=O)N1CCC[C@H]1c1ncc(-c2ccc(-c3ccc(-c4cnc([C@@H]5CCCN5C(=O)c5ccncc5)[nH]4)cc3)cc2)[nH]1)c1ccccc1` [Example 69, methyl ((1R)-2-((2S)-2-(5-(4′-(2-((2S)-1-isonicotinoyl-2-pyrrolidinyl)-1H-imidazol-5-yl)-4-biphenylyl)-1H-imidaozl-2-yl)-1-pyrrolidinyl)-2-oxo-1-phenylethyl)carbamate], the EC50 was 0.001 to 0.999 nM.
Regarding `COC(=O)N[C@@H](C(=O)N1CCC[C@H]1c1ncc(-c2ccc(-c3ccc(-c4cnc([C@@H]5CCCN5C(=O)[C@@H]5C[C@@H](F)CN5C)[nH]4)cc3)cc2)[nH]1)c1ccccc1` [Example 70, methyl ((1R)-2-((2S)-2-(5-(4′-(2-((2S)-1-((4R)-4-fluoro-1-methyl-L-prolyl)-2-pyrrolidinyl)-1H-imidazol-5-yl)-4-biphenylyl)-1H-imidazol-2-yl)-1-pyrrolidinyl)-2-oxo-1-phenylethyl)carbamate], for the setting “Hepatitis C virus”, the EC50 lay in the range of 1 to 99 nM.
Take `COC(=O)N[C@@H](C(=O)N1CCC[C@H]1c1ncc(-c2ccc(-c3ccc(-c4cnc([C@@H]5CCCN5C(=O)c5ncco5)[nH]4)cc3)cc2)[nH]1)c1ccccc1` [Example 71, methyl ((1R)-2-((2S)-2-(5-(4′-(2-((2S)-1-(1,3-oxazol-2-ylcarbonyl)-2-pyrrolidinyl)-1H-imidazol-5-yl)-4-biphenylyl)-1H-imidazol-2-yl)-1-pyrrolidinyl)-2-oxo-1-phenylethyl)carbamate]: the EC50 (Hepatitis C virus) fell in the range of 0.001 to 0.999 nM.
For `COC(=O)N[C@@H](C(=O)N1CCC[C@H]1c1ncc(-c2ccc(-c3ccc(-c4cnc([C@@H]5CCCN5C(=O)c5cnco5)[nH]4)cc3)cc2)[nH]1)c1ccccc1` [Example 72, methyl ((1R)-2-((2S)-2-(5-(4′-(2-((2S)-1-(1,3-oxazol-5-ylcarbonyl)-2-pyrrolidinyl)-1H-imidazol-5-yl)-4-biphenylyl)-1H-imidazol-2-yl)-1-pyrrolidinyl)-2-oxo-1-phenylethy)carbamate], the EC50 fell in the range of 1 to 99 nM.
With `COC(=O)N[C@@H](C(=O)N1CCC[C@H]1c1ncc(-c2ccc(-c3ccc(-c4cnc([C@@H]5CCCN5C(=O)C(=O)N(C)C)[nH]4)cc3)cc2)[nH]1)c1ccccc1` [Example 73, methyl ((1R)-2-((2S)-2-(5-(4′-(2-((2S)-1-((dimethylamino)(oxo)acetyl)-2-pyrrolidinyl)-1H-imidazol-5-yl)-4-biphenylyl)-1H-imidazol-2-yl)-1-pyrrolidinyl)-2-oxo-1-phenylethyl)carbamate], the EC50 (Hepatitis C virus) lay in the range of 0.001 to 0.999 nM.
`COC(=O)N[C@@H](C(=O)N1CCC[C@H]1c1ncc(-c2ccc(-c3ccc(-c4cnc([C@@H]5CCCN5C(=O)C5CCOC5)[nH]4)cc3)cc2)[nH]1)c1ccccc1` (stereo partly drawn) [Example 74, methyl ((1R)-2-oxo-1-phenyl-2-((2S)-2-(5-(4′-(2-((2S)-1-(tetrahydro-3-furanylcarbonyl)-2-pyrrolidinyl)-1H-imidazol-5-yl)-4-biphenylyl)-1H-imidazol-2-yl)-1-pyrrolidinyl)ethyl)carbamate]: the EC50 (Hepatitis C virus) was 0.001 to 0.999 nM.
For the compound `COC(=O)N[C@@H](C)C(=O)N1CCC[C@H]1c1ncc(-c2ccc(-c3ccc(-c4cnc([C@@H]5CCCN5C(=O)[C@H](NC(=O)OC)c5ccccc5)[nH]4)cc3)cc2)[nH]1` [Example 75, methyl ((1R)-2-((2S)-2-(5-(4′-(2-((2S)-1-(N-(methoxycarbonyl)-L-alanyl)-2-pyrrolidinyl)-1H-imidazol-5-yl)-4-biphenylyl)-1H-imidazol-2-yl)-1-pyrrolidinyl)-2-oxo-1-phenylethyl)carbamate], the EC50 (Hepatitis C virus) lay in the range of 0.001 to 0.999 nM.
On the same count and under the same terms, next, `COC(=O)N[C@@H](C(=O)N1CCC[C@H]1c1ncc(-c2ccc(-c3ccc(-c4cnc([C@@H]5CCCN5C(=O)[C@H](C)N(C)C)[nH]4)cc3)cc2)[nH]1)c1ccccc1` [Example 76, methyl ((1R)-2-((2S)-2-(5-(4′-(2-((2S)-1-(N,N-dimethyl-L-alanyl)-2-pyrrolidinyl)-1H-imidazol-5-yl)-4-biphenylyl)-1H-imidazol-2-yl)-1-pyrrolidinyl)-2-oxo-1-phenylethyl)carbamate]: 0.001 to 0.999 nM; `COC(=O)N[C@@H](C(=O)N1CCC[C@H]1c1ncc(-c2ccc(-c3ccc(-c4cnc([C@@H]5CCCN5C(=O)OC)[nH]4)cc3)cc2)[nH]1)c1ccccc1` [Example 77, methyl (2S)-2-(5-(4′-(2-((2S)-1-((2R)-2-((methoxycarbonyl)amino)-2-phenylacetyl)-2-pyrrolidinyl)-1H-imidazol-5-yl)-4-biphenylyl)-1H-imidazol-2-yl)-1-pyrrolidinecarboxylate]: 0.001 to 0.999 nM; `COC(=O)N[C@@H](C(=O)N1CCC[C@H]1c1ncc(-c2ccc(-c3ccc(-c4cnc([C@@H]5CCCN5C(=O)N5CCOCC5)[nH]4)cc3)cc2)[nH]1)c1ccccc1` [Example 78, methyl ((1R)-2-((2S)-2-(5-(4′-(2-((2S)-1-(4-morpholinylcarbonyl)-2-pyrrolidinyl)-1H-imidazol-5-yl)-4-biphenylyl)-1H-imidazol-2-yl)-1-pyrrolidinyl)-2-oxo-1-phenylethyl)carbamate]: 0.001 to 0.999 nM.
`COC(=O)N[C@@H](C(=O)N1CCC[C@H]1c1ncc(-c2ccc(-c3ccc(-c4cnc([C@@H]5CCCN5C(=O)[C@@H]5C[C@H](F)CN5)[nH]4)cc3)cc2)[nH]1)c1ccccc1` [Example 79, methyl ((1R)-2-((2)S-2-(5-(4′-(2-((2S)-1-((4S)-4-fluoro-L-prolyl)-2-pyrrolidinyl)-1H-imidazol-5-yl)-4-biphenylyl)-1H-imidazol-2-yl)-1-pyrrolidinyl)-2-oxo-1-phenylethyl)carbamate]: the EC50 is 0.001 to 0.999 nM.
`COC(=O)N[C@@H](C(=O)N1CCC[C@H]1c1ncc(-c2ccc(-c3ccc(-c4cnc([C@@H]5CCCN5C(=O)[C@@H]5CCCN5)[nH]4)cc3)cc2)[nH]1)c1ccccc1` [Example 80, methyl ((1R)-2-oxo-1-phenyl-2-((2S)-2-(5-(4′-(2-((2S)-1-L-prolyl-2-pyrrolidinyl)-1H-imidazol-5-yl)-4-biphenylyl)-1H-imidazol-2-yl)-1-pyrrolidinyl)ethyl)carbamate]: the EC50 (Hepatitis C virus) was 0.001 to 0.999 nM.
On the same count and under the same terms, next, `COC(=O)N[C@@H](C(=O)N1CCC[C@H]1c1ncc(-c2ccc(-c3ccc(-c4cnc([C@@H]5CCCN5C(=O)[C@@H]5CC(F)(F)CN5)[nH]4)cc3)cc2)[nH]1)c1ccccc1` [Example 81, methyl ((1R)-2-((2S)-2-(5-(4′(2-((2S)-1-(4,4-difluoro-L-prolyl)-2-pyrrolidinyl)-1H-imidazol-5-yl)-4-biphenylyl)-1H-imidazol-2-yl)-1-pyrrolidinyl)-2-oxo-1-phenylethyl)carbamate]: 0.001 to 0.999 nM.
